In PubChem BioAssay (NCI) one finds GI50 and TGI data, which are given here for ten compounds.

Among the test systems are A498 renal; BT-549 breast; RPMI-8226 leukemia; SK-MEL-2 melanoma; SK-OV-3 ovarian; SNB-75 CNS; SW-620 colon; T-47D breast; M19-MEL melanoma; KM20L2 colon.
What all share (experiment): DTP human tumour cell line panel, 48 h

Each structure is given as a SMILES string.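 Five concentrations, 48 hours, 96-well plates. At the GI50, growth is halved. Definition used: TGI = concentration required for complete inhibition of growth.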

What is called GI50 is the concentration giving 50% growth inhibition. In general, TGI refers to the concentration at which net growth stops. A high value points to less potent growth arrest. With `COC(=O)[C@@H](NC(=O)[C@@H](OC)[C@@H]1Cc2cc3cc(OC4CC(OC5CC(O)C(O)C(C)O5)C(O)C(C)O4)c(C)c(O)c3c(O)c2C(=O)[C@H]1OC1CC(OC2CC(OC3CC(C)(O)C(O)C(C)O3)C(O)C(C)O2)C(O)C(C)O1)C(C)C` (stereo not given in full), the GI50 in the assay with A498 renal is 0.0869 µM; in the assay on BT-549 breast, 0.184 µM; with RPMI-8226 leukemia it was 0.0918 µM; in the assay on SK-MEL-2 melanoma it was 0.194 µM; with SK-OV-3 ovarian, 0.271 µM; in the assay on SNB-75 CNS it was 0.0849 µM. Besides, the GI50 in the assay on SW-620 colon was 0.121 µM; in the assay with T-47D breast, 0.202 µM. For the same compound, the TGI with A498 renal is 0.333 µM; in the assay with BT-549 breast it was 2.63 µM; in the assay on RPMI-8226 leukemia, 0.619 µM; in the assay on SK-MEL-2 melanoma it was 7.94 µM; in the assay with SK-OV-3 ovarian, more than 32.5 µM; in the assay on SNB-75 CNS it was 1.46 µM. The TGI in the assay with SW-620 colon and in the assay on T-47D breast was more than 32.5 µM each time.

Turning to `CCCCCCCCCc1cc(=O)c2c(O)cccc2o1`, the TGI was more than 10 µM in the assay with M19-MEL melanoma; more than 100 µM with RPMI-8226 leukemia; 64.7 µM in the assay on SK-MEL-2 melanoma; more than 100 µM in the assay on SK-OV-3 ovarian; more than 10 µM in the assay with SNB-75 CNS; more than 100 µM with SW-620 colon.

Turning to `CCN(CC)CCNCC(=O)Oc1ccc(/C=C/C(=O)CC(=O)/C=C/c2ccc(OC(=O)CNCCN(CC)CC)c(OC)c2)cc1OC`, the GI50 in the assay on A498 renal is 3.34 µM; in the assay with BT-549 breast, 2.29 µM; in the assay with RPMI-8226 leukemia, 1.91 µM; in the assay on SK-MEL-2 melanoma, 3.39 µM; in the assay on SK-OV-3 ovarian, 3.71 µM; in the assay with SNB-75 CNS, 6.31 µM. The GI50 in the assay on SW-620 colon was 3.02 µM; with T-47D breast, 6.1 µM. Moreover, the TGI was found to be 11.6 µM in the assay with A498 renal; 5.95 µM with BT-549 breast; 6.01 µM in the assay with RPMI-8226 leukemia; 12.7 µM with SK-MEL-2 melanoma; 12.6 µM in the assay on SK-OV-3 ovarian; 28.1 µM with SNB-75 CNS. Also, the TGI came out at 9.93 µM in the assay on SW-620 colon and 31.6 µM in the assay with T-47D breast.

Consider `Nc1ccncc1/C=C1/C(=O)Nc2ccccc21`, for which the GI50 with A498 renal is 18.7 µM; in the assay with BT-549 breast, 40.2 µM; in the assay on RPMI-8226 leukemia, more than 100 µM; in the assay on SK-MEL-2 melanoma, 19.4 µM; in the assay on SK-OV-3 ovarian it was 46.7 µM; in the assay on SNB-75 CNS, 18.5 µM. Further, the GI50 with SW-620 colon is 31.4 µM; in the assay on T-47D breast it was more than 100 µM. The TGI was 52.7 µM in the assay with A498 renal; more than 100 µM in the assay on BT-549 breast; more than 100 µM in the assay on RPMI-8226 leukemia; 87.3 µM in the assay with SK-MEL-2 melanoma; more than 100 µM in the assay on SK-OV-3 ovarian; 63.2 µM in the assay on SNB-75 CNS. The TGI with SW-620 colon and with T-47D breast was more than 100 µM in each case.

In the case of `O=c1[nH]c2cc(Cl)ccc2n1C1CCN(CCCC(c2ccc(F)cc2)c2ccc(F)cc2)CC1`, the GI50 was 1.34 µM with A498 renal; 1.32 µM in the assay on BT-549 breast; 0.711 µM with RPMI-8226 leukemia; 1.7 µM with SK-MEL-2 melanoma; 1.82 µM with SK-OV-3 ovarian; 1.27 µM in the assay on SNB-75 CNS. The GI50 in the assay with SW-620 colon is 1.52 µM; with T-47D breast, 1.83 µM. Moreover, the TGI was determined as 2.74 µM in the assay with A498 renal; 2.92 µM with BT-549 breast; 3.6 µM with RPMI-8226 leukemia; 3.35 µM in the assay with SK-MEL-2 melanoma; 3.72 µM in the assay with SK-OV-3 ovarian; 2.73 µM with SNB-75 CNS. The TGI with SW-620 colon was found to be 2.99 µM; in the assay with T-47D breast, 3.79 µM.

For `Cc1cc(NC(=O)c2ccc(C)c(Nc3nccc(-c4cccnc4)n3)c2)cc(-n2cnc(C)c2)c1`, the GI50 in the assay on A498 renal was 1.86 µM; in the assay on BT-549 breast, 0.159 µM; with RPMI-8226 leukemia it was 6.45 µM; with SK-MEL-2 melanoma it was 5.03 µM; in the assay on SK-OV-3 ovarian, 1.73 µM; with SNB-75 CNS it was 1.1 µM. The GI50 in the assay on SW-620 colon is 4.7 µM; in the assay on T-47D breast, 1.34 µM. In addition, the TGI with A498 renal is 7.93 µM; in the assay with BT-549 breast, 9.98 µM; in the assay on RPMI-8226 leukemia, 27.6 µM; in the assay on SK-MEL-2 melanoma, 12.9 µM; with SK-OV-3 ovarian, 4.93 µM; in the assay on SNB-75 CNS, 2.81 µM. Further, the TGI is 26.4 µM in the assay with SW-620 colon and 3.77 µM in the assay with T-47D breast.

For `CN1CCc2c(Sc3ccc(C(=O)NO)cc3)c3ccccc3n2C1`, the GI50 is 0.185 µM with A498 renal; 2.39 µM in the assay with BT-549 breast; 1.36 µM in the assay on RPMI-8226 leukemia; 2.01 µM in the assay on SK-MEL-2 melanoma; 2.08 µM in the assay on SK-OV-3 ovarian; 0.674 µM with SNB-75 CNS. In addition, the GI50 in the assay with SW-620 colon was 1.92 µM; with T-47D breast, 1.62 µM. The concentration for total growth inhibition (TGI) in the assay with A498 renal turned out to be 2.44 µM; in the assay on BT-549 breast it was 6.19 µM; in the assay on RPMI-8226 leukemia, 11.1 µM; in the assay on SK-MEL-2 melanoma, 4.55 µM; with SK-OV-3 ovarian, 5.67 µM; with SNB-75 CNS, 3.79 µM. Besides, the TGI with SW-620 colon amounted to 5.22 µM; in the assay on T-47D breast it was 5.84 µM.

On to `Cc1sc2nc(NCCc3c[nH]c4ccc(Cl)cc34)[nH]c(=O)c2c1C`, for which the GI50 in the assay with A498 renal is 1.8 µM; in the assay with BT-549 breast, 2.55 µM; in the assay on RPMI-8226 leukemia, 2.45 µM; in the assay with SK-MEL-2 melanoma it was 2.62 µM; in the assay with SK-OV-3 ovarian, 3.22 µM; with SNB-75 CNS, 1.65 µM. Besides, the GI50 in the assay with SW-620 colon was 2.64 µM; in the assay with T-47D breast it was 2.98 µM. In addition, the TGI with A498 renal amounted to 4.15 µM; with BT-549 breast, 9.95 µM; in the assay on RPMI-8226 leukemia, 7.9 µM; in the assay with SK-MEL-2 melanoma, 9.29 µM; in the assay with SK-OV-3 ovarian it was 14.5 µM; in the assay with SNB-75 CNS, 5.21 µM. For the same compound, the TGI in the assay with SW-620 colon turned out to be 10.9 µM; in the assay with T-47D breast it was 12.7 µM.

For the compound `Nc1nc(Nc2ccccc2)c2ncn(Cc3cc4c(cc3Br)OCO4)c2n1`, the GI50 with A498 renal is 0.0546 µM; with BT-549 breast, 0.0511 µM; in the assay with RPMI-8226 leukemia, 0.0497 µM; in the assay with SK-MEL-2 melanoma, 0.0546 µM; with SK-OV-3 ovarian it was 0.0373 µM; with SNB-75 CNS, 0.0623 µM. In addition, the concentration for 50% growth inhibition (GI50) in the assay on SW-620 colon was 0.0471 µM; in the assay with T-47D breast, less than 0.01 µM. Also, the TGI in the assay with A498 renal was 29.7 µM; with BT-549 breast it was 2.33 µM; with RPMI-8226 leukemia it was more than 52.7 µM; in the assay with SK-MEL-2 melanoma, 42.3 µM; in the assay with SK-OV-3 ovarian, 2.36 µM; with SNB-75 CNS, 25.3 µM. Besides, the TGI with SW-620 colon was more than 100 µM; in the assay on T-47D breast, 21.4 µM.

As to `O=C(CCC(=O)Nc1cccc(Cl)c1)CC(=O)c1ccc(Cl)cc1`, the TGI in the assay on KM20L2 colon, in the assay with RPMI-8226 leukemia, with SK-MEL-2 melanoma, with SK-OV-3 ovarian, in the assay on SNB-75 CNS and in the assay on SW-620 colon was more than 100 µM each time.
